In patent US11376216B2, “Periodontal disease therapy” (New York University, priority 2018, dated 2022):

Experiments:
[1] = target: T1, Human Succinate Receptor 1 (Homo sapiens, UniProt Q9BXA5); assay: Human Succinate Receptor 1 AequoScreen cell line calcium signal upon succinate activation; assay type: cell-based; settings: succinate 500 μM, read-out: inhibition of SucnR1 activation by succinate
T1 sequence (Q9BXA5 1-334): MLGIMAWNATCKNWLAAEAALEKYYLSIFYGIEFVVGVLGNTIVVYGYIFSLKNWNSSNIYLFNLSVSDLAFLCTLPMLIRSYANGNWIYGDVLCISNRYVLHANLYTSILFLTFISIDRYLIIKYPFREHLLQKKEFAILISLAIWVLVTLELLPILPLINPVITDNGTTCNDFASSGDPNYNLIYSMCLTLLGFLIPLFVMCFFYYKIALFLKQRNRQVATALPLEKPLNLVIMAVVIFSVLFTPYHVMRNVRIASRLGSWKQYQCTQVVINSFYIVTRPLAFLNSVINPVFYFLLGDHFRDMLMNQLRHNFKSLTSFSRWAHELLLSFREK
Method: Human Succinate Receptor 1 AequoScreen® Cell Line (PerkinElmer ES-744-A) was used to assess the activity of SUCNR1 upon activation by ligand (succinate 500 μM) in the presence and absence of antagonists. Cells were seeded at 5,000 cells/well for 24 hour before the calcium dye was added. Forty-five minutes later, the antagonists were added at indicated concentrations. Fifteen minutes later, the ligand was added and the fluorescent signal (EX/EM: 485/525) was measured immediately on a plate reader. A) The efficacy of 3 newly synthesized compounds in comparison with 4C at the same concentration. (*p<0.05, **p<0.001 by t-test in comparison to ligand alone post One-Way ANOVA) B) Dose effects of the compound 7a at various concentrations. (*p<0.05, **p<0.001 in comparison to […] by t-test post One-Way ANOVA).
Structure-activity relationship studies were performed using the compounds depicted in FIG. 7. The structure and purity of the compounds were confirmed via HPLC and NMR. At the same concentration of 4C, these antagonists inhibited the activation of SucnR1 by succinate in vitro (FIG. 8A).

pre-osteoclastic cells = assay: Viability/proliferation of osteoclast progenitors (cytotoxicity of 4C); assay type: cell-based, mouse; settings: at up to 100 μM; without RANKL and M-CSF
Method: (§1) (A) “4C” structure with NMR in dimethyl sulfoxide (DMSO). (B) Purity by high-performance liquid chromatography (HPLC). Ficoll processed non-adherent bone marrow cells were seeded at 20,000 per well in 96-well-plate and stimulated with the indicated concentration of cytokines (macrophage-colony stimulating factor (M-CSF), 30 ng ml^−1 from day 1; receptor activator of nuclear factor kappa-B ligand (RANKL), 50 ng ml^−1 from day 3); fresh cytokines were added every other day. (C) No cytotoxicity of 4C to the proliferation of osteoclast (OC) progenitors (without RANKL and M-CSF). (D-E) Representative TRAP staining images and analysis of WT mouse bone marrow in vitro OC cultures treated with 1 mM succinate or control in the presence of SucnR1 antagonist 4C at indicated concentrations. **p<0.01, *** p<0.001 according to Bonferroni post hoc test after ANOVA, N=5.
(§2) The structure of the synthetic antagonist of SucnR1 4C was authenticated using nuclear magnetic resonance spectroscopy (FIG. 2A) with a purity of 98.002% according to high-performance liquid chromatography (FIG. 2B).

[2] = system: osteoclast culture derived from ficoll processed mouse bone marrow cells; assay: Succinate-stimulated osteoclastogenesis in bone marrow osteoclast cultures (TRAP staining); assay type: cell-based; settings: 1 mM succinate, in vitro
Method: as §1, §2

SMILES | inhibition at 20 µM [1] [%] | inhibitory effect on the viability of pre-osteoclastic cells (pre-osteoclastic cells) | reduction of succinate stimulation of osteoclastogenesis ([2]; 4C at 0.1 μM) | reduction of succinate stimulation of osteoclastogenesis ([2]; 4C at 10 μM)
CNC(=O)Cc1ccc(-c2ccc3cccnc3n2)cc1 [Cpd-7a] | 50 | – | – | –
C[C@H](NC(=O)Cc1ccc(-c2ccc3cccnc3n2)cc1)c1ccc(-c2ccc(F)c(C(F)(F)F)c2)cc1 [4C] | – | no inhibitory effect | started to reduce the stimulation of succinate | completely erase the simulation of osteoclastogenesis by succinate
